Reference: patent US20260109708A1, “COMPOUNDS AND COMPOSITIONS USEFUL AS DEGRADERS OF MK2 KINASE” (Celgene Corporation, priority 2023, published 2026)

Target: T1, p38a activated, mitogen-activated protein kinase-activated protein kinase 2 (MAPKAP-K2 or MK2) enzyme (Homo sapiens, UniProt P49137)
T1 construct: purchased Invitrogen PV3317
Assay: MK2 OMNIA biochemical assay (AssayQuant continuous-read kinase assay)
Conditions: [MK-2]=0.05 nM, [ATP]=100 μM, [AQT0425]=10 μM
Source text: Example 56.2. Mitogen-Activated Protein Kinase-Activated Protein Kinase 2 AssayQuant Technologies® Assay for Compound Potency Assessment (MK2 OMNIA Biochemical Assay)
The protocol below describes a continuous-read kinase assay optimized to measure potency of compounds against p38a activated, mitogen-activated protein kinase-activated protein kinase 2 (MAPKAP-K2 or MK2) enzyme.
A 1.25× stock solution of MK2 (PV3317, from Invitrogen) and a 5× stock solution of ATP and Sox conjugated peptide substrate, AQT0425 (CSKS-AQT0425B, from AssayQuant Technologies), were prepared in 1× kinase reaction buffer consisting of 50 mM HEPES, pH 7.5, 0.01% Brij-35, 0.55 mM EGTA, 10 mM MgCl2 and 1 mM DTT.
10 μL of the ATP and substrate solution mix was added to a Coming (3574) 384-well, white, non-binding surface microtiter plate containing 0.5 μL of serially diluted test compounds prepared in DMSO. The reactions were started with the addition of 40 μL of the enzyme solution and monitored every 71 seconds for 240 min at kex 360/λem 485 in a Synergy H4 plate reader from BioTek at room temperature.
The initial linear portions of the net progress curves were fit according to a linear equation to yield the slope and percentage of inhibition (% inhibition) at each compound concentration. The net progress curves obtained during the entirety of reactions were also fit according to an ascending single-exponential equation (Eq. 1) to yield Vobs values at each compound concentration. Plots of % Inhibition versus degrader concentrations were fit according to a dose-response equation (Eq. 2) to generate IC50 and Hill slope values while plots of Vobs versus degrader concentration were fit according to Equation 3 (Eq. 3) to generate apparent Kinact values using the GraphPad PRISM software.
where F is the fluorescence intensity from the plate reader, V0 is a constant reflecting the relationship between the instrument readout and product concentration, t is time, e is Euler's number, and Vobs is the observed inactivation rate constant.
where % Inhibition is percentage of inhibition, IC50 is half maximal inhibitory concentration, [I] is the degraders concentration, and n is the Hill slope.
where kobs is the observed inactivation rate constant, Kinact is the apparent inactivation rate constant, K1 is the apparent inhibition constant, and [I] is the degrader concentration.

T1 sequence (P49137 whole entry): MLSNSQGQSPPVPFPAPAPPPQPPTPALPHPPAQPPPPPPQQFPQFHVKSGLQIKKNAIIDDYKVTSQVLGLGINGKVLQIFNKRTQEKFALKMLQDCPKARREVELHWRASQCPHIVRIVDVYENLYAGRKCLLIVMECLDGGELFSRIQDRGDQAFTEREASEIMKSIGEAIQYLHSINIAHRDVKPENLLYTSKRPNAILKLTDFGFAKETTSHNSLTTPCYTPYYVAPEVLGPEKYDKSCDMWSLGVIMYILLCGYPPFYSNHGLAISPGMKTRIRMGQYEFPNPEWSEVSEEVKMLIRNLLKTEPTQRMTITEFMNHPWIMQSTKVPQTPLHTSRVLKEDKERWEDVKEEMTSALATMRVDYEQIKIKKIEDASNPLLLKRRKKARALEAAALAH

SMILES	IC50 [nM]
C[C@@H]1CNc2c(sc3ccc4nc(-c5cccc(N6CC7CC(C6)N7CCN6CCN(c7ccc8c(C9CCC(=O)NC9=O)nn(C)c8c7)CC6)c5)ccc4c23)C(=O)N1 (stereo partly drawn) [Ex 15, 3-(1-Methyl-6-(4-(2-(3-(3-((R)-10-methyl-8-oxo-9,10,11,12-tetrahydro-8H-[1,4]diazepino[5′,6′:4,5]thieno[3,2-f]quinolin-3-yl)phenyl)-3,6-diazabicyclo[3.1.1]heptan-6-yl)ethyl)piperazin-1-yl)-1H-indazol-3-yl)piperidine-2,6-dione]	< 150
C[C@@H]1COc2c(sc3ccc4nc(-c5cccc(N6CCN(CCN7CCN(c8ccc(C9CCC(=O)NC9=O)cc8)CC7)CC6)c5)ccc4c23)C(=O)N1 (stereo partly drawn) [Ex 16, 3-(4-(4-(2-(4-(3-((R)-10-Methyl-8-oxo-8,9,10,11-tetrahydro-[1,4]oxazepino[7′,6′:4,5]thieno[3,2-f]quinolin-3-yl)phenyl)piperazin-1-yl)ethyl)piperazin-1-yl)phenyl)piperidine-2,6-dione]	< 150
C[C@@H]1COc2c(sc3ccc4nc(-c5cccc(N6CCN(CCN7CCN(c8ccc9c(C%10CCC(=O)NC%10=O)nn(C)c9c8)CC7)CC6)c5)ccc4c23)C(=O)N1 (stereo partly drawn) [Ex 17, 3-(1-Methyl-6-(4-(2-(4-(3-((R)-10-methyl-8-oxo-8,9,10,11-tetrahydro-[1,4]oxazepino[7′,6′:4,5]thieno[3,2-f]quinolin-3-yl)phenyl)piperazin-1-yl)ethyl)piperazin-1-yl)-1H-indazol-3-yl)piperidine-2,6-dione]	< 150
C[C@@H]1CNc2c(sc3ccc4nc(-c5cccc(C6CCN(CCN7CCN(c8ccc9c(C%10CCC(=O)NC%10=O)nn(C)c9c8)CC7)CC6)c5)ccc4c23)C(=O)N1 (stereo partly drawn) [Ex 19, 3-(1-Methyl-6-(4-(2-(4-(3-((R)-10-methyl-8-oxo-9,10,11,12-tetrahydro-8H-[1,4]diazepino[5′,6′:4,5]thieno[3,2-f]quinolin-3-yl)phenyl)piperidin-1-yl)ethyl)piperazin-1-yl)-1H-indazol-3-yl)piperidine-2,6-dione]	< 150
C[C@@H]1CNc2c(sc3ccc4nc(-c5ccc(N6CCN(CCN7CCN(c8ccc9c(C%10CCC(=O)NC%10=O)nn(C)c9c8)CC7)CC6)cc5)ccc4c23)C(=O)N1 (stereo partly drawn) [Ex 21, 3-(1-Methyl-6-(4-(2-(4-(4-((R)-10-methyl-8-oxo-9,10,11,12-tetrahydro-8H-[1,4]diazepino[5′,6′:4,5]thieno[3,2-f]quinolin-3-yl)phenyl)piperazin-1-yl)ethyl)piperazin-1-yl)-1H-indazol-3-yl)piperidine-2,6-dione]	151 to 500
C[C@@H]1CNc2c(sc3ccc4nc(-c5ccc(N6CCN(CCN7CCN(c8ccc(C9CCC(=O)NC9=O)cc8)CC7)CC6)cc5)ccc4c23)C(=O)N1 (stereo partly drawn) [Ex 22, 3-(4-(4-(2-(4-(4-((R)-10-Methyl-8-oxo-9,10,11,12-tetrahydro-8H-[1,4]diazepino[5′,6′:4,5]thieno[3,2-f]quinolin-3-yl)phenyl)piperazin-1-yl)ethyl)piperazin-1-yl)phenyl)piperidine-2,6-dione]	151 to 500
C[C@@H]1CNc2c(sc3ccc4nc(-c5ccc(N6CCN(C(=O)C(=O)N7CCN(c8ccc(C9CCC(=O)NC9=O)cc8)CC7)CC6)cc5)ccc4c23)C(=O)N1 (stereo partly drawn) [Ex 23, 3-(4-(4-(2-(4-(4-((R)-10-Methyl-8-oxo-9,10,11,12-tetrahydro-8H-[1,4]diazepino[5′,6′:4,5]thieno[3,2-f]quinolin-3-yl)phenyl)piperazin-1-yl)-2-oxoacetyl)piperazin-1-yl)phenyl)piperidine-2,6-dione]	< 150
C[C@@H]1CNc2c(sc3ccc4nc(-c5ccc(N6CC7CC(C6)N7CCN6CCN(c7ccc(C8CCC(=O)NC8=O)cc7)CC6)cc5)ccc4c23)C(=O)N1 (stereo partly drawn) [Ex 24, 3-(4-(4-(2-(3-(4-((R)-10-Methyl-8-oxo-9,10,11,12-tetrahydro-8H-[1,4]diazepino[5′,6′:4,5]thieno[3,2-f]quinolin-3-yl)phenyl)-3,6-diazabicyclo[3.1.1]heptan-6-yl)ethyl)piperazin-1-yl)phenyl)piperidine-2,6-dione]	< 150
C[C@@H]1COc2c(sc3ccc4nc(-c5ccc(N6CCN(CCN7CCN(c8ccc(C9CCC(=O)NC9=O)cc8)CC7)CC6)cc5)ccc4c23)C(=O)N1 (stereo partly drawn) [Ex 25, 3-(4-(4-(2-(4-(4-((R)-10-Methyl-8-oxo-8,9,10,11-tetrahydro-[1,4]oxazepino[7′,6′:4,5]thieno[3,2-f]quinolin-3-yl)phenyl)piperazin-1-yl)ethyl)piperazin-1-yl)phenyl)piperidine-2,6-dione]	151 to 500
C[C@@H]1COc2c(sc3ccc4nc(-c5ccc(N6CCN(CCN7CCN(c8ccc9c(C%10CCC(=O)NC%10=O)nn(C)c9c8)CC7)CC6)cc5)ccc4c23)C(=O)N1 (stereo partly drawn) [Ex 26]	< 150
C[C@@H]1CNc2c(sc3ccc4nc(-c5ccc(C6CCN(CCN7CCN(c8ccc9c(C%10CCC(=O)NC%10=O)nn(C)c9c8)CC7)CC6)cc5)ccc4c23)C(=O)N1 (stereo partly drawn) [Ex 28, 3-(1-Methyl-6-(4-(2-(4-(4-((R)-10-methyl-8-oxo-9,10,11,12-tetrahydro-8H-[1,4]diazepino[5′,6′:4,5]thieno[3,2-f]quinolin-3-yl)phenyl)piperidin-1-yl)ethyl)piperazin-1-yl)-1H-indazol-3-yl)piperidine-2,6-dione]	< 150
C[C@@H]1CNc2c(sc3ccc4nc(-c5ccc(C6=CCN(CCN7CCN(c8ccc(C9CCC(=O)NC9=O)cc8)CC7)CC6)cc5)ccc4c23)C(=O)N1 (stereo partly drawn) [Ex 31, 3-(4-(4-(2-(4-(4-((R)-10-Methyl-8-oxo-9,10,11,12-tetrahydro-8H-[1,4]diazepino[5′,6′:4,5]thieno[3,2-f]quinolin-3-yl)phenyl)-3,6-dihydropyridin-1(2H)-yl)ethyl)piperazin-1-yl)phenyl)piperidine-2,6-dione]	< 150

Further lines, results first:

IC50 [nM]	SMILES
< 150	C[C@@H]1CNc2c(sc3ccc4nc(-c5cccc(C6CCN(CCN7CCN(c8ccc(C9CCC(=O)NC9=O)cc8)CC7)CC6)c5)ccc4c23)C(=O)N1 (stereo partly drawn) [Ex 18, 3-(4-(4-(2-(4-(3-((R)-10-Methyl-8-oxo-9,10,11,12-tetrahydro-8H-[1,4]diazepino[5′,6′:4,5]thieno[3,2-f]quinolin-3-yl)phenyl)piperidin-1-yl)ethyl)piperazin-1-yl)phenyl)piperidine-2,6-dione]
< 150	C[C@@H]1CNc2c(sc3ccc4nc(-c5ccc(N6CCN(CCN7CCC(c8ccc(C9CCC(=O)NC9=O)cc8)CC7)CC6)cc5)ccc4c23)C(=O)N1 (stereo partly drawn) [Ex 20, 3-(4-(1-(2-(4-(4-((R)-10-Methyl-8-oxo-9,10,11,12-tetrahydro-8H-[1,4]diazepino[5′,6′:4,5]thieno[3,2-f]quinolin-3-yl)phenyl)piperazin-1-yl)ethyl)piperidin-4-yl)phenyl)piperidine-2,6-dione]
< 150	C[C@@H]1CNc2c(sc3ccc4nc(-c5ccc(C6CCN(CCN7CCN(c8ccc(C9CCC(=O)NC9=O)cc8)CC7)CC6)cc5)ccc4c23)C(=O)N1 (stereo partly drawn) [Ex 27, 3-(4-(4-(2-(4-(4-((R)-10-Methyl-8-oxo-9,10,11,12-tetrahydro-8H-[1,4]diazepino[5′,6′:4,5]thieno[3,2-f]quinolin-3-yl)phenyl)piperidin-1-yl)ethyl)piperazin-1-yl)phenyl)piperidine-2,6-dione]
< 150	C[C@@H]1CNc2c(sc3ccc4nc(-c5ccc(C6CCN(CCN7CCC(c8ccc(C9CCC(=O)NC9=O)cc8)CC7)CC6)cc5)ccc4c23)C(=O)N1 (stereo partly drawn) [Ex 29, 3-(4-(1-(2-(4-(4-((R)-10-Methyl-8-oxo-9,10,11,12-tetrahydro-8H-[1,4]diazepino[5′,6′:4,5]thieno[3,2-f]quinolin-3-yl)phenyl)piperidin-1-yl)ethyl)piperidin-4-yl)phenyl)piperidine-2,6-dione]
< 150	C[C@@H]1CNc2c(sc3ccc4nc(-c5ccc(C6CN(CCN7CCN(c8ccc(C9CCC(=O)NC9=O)cc8)CC7)C6)cc5)ccc4c23)C(=O)N1 (stereo partly drawn) [Ex 30, 3-(4-(4-(2-(3-(4-((R)-10-Methyl-8-oxo-9,10,11,12-tetrahydro-8H-[1,4]diazepino[5′,6′:4,5]thieno[3,2-f]quinolin-3-yl)phenyl)azetidin-1-yl)ethyl)piperazin-1-yl)phenyl)piperidine-2,6-dione]
151 to 500	C[C@@H]1COc2c(sc3ccc4nc(-c5ccc(C6CCN(CCN7CCN(c8ccc(C9CCC(=O)NC9=O)cc8)CC7)CC6)cc5)ccc4c23)C(=O)N1 (stereo partly drawn) [Ex 32, 3-(4-(4-(2-(4-(4-((R)-10-Methyl-8-oxo-8,9,10,11-tetrahydro-[1,4]oxazepino[7′,6′:4,5]thieno[3,2-f]quinolin-3-yl)phenyl)piperidin-1-yl)ethyl)piperazin-1-yl)phenyl)piperidine-2,6-dione]
